Data as given in patent publication US8288363B2, “Medicaments for anti-herpes virus treatments” (ASE & BIO, priority 2006, dated 2012).

How the values were obtained:
[1] = tested on: HSV-1, HSV-1R, HSV-2 and HSV-2R; assay: Action as a function of the moment of use (time of addition); assay type: cell-based, herpes simplex virus; conditions: for Inhibitory effect as a function of the moment of use: viral strains HSV-1R and HSV-2R, PS3 even when used 3 hours after infection, 72 hours
Method: To determine at what moment it is appropriate to use PS3, the procedure was as follows.
Vero cells were seeded at a cell density of 3.5·10^4 cells/well of a 96-well microtitre plate in 100 μl of MEM medium containing 8% FCS and they were then infected by being brought into contact with the various viral strains identified above for 1 hour at 4° C.
The infected cells were then washed with a saline buffer in order to remove the viral particles which had not be adsorbed.
The infected cells were then treated with PS3 or with the comparison product: • either at the moment of infection, • or 1, 2, 3 and 5 hours after infection.
In each case the microtitre plates were kept at 37° C. for 72 hours. The inhibitory effect of PS3 or of the comparison product, in this case acyclovir, was then determined for each viral strain.

[2] = tested on: HSV-1, HSV-1R, HSV-2 and HSV-2R; assay: Virucidal action: viral suspensions treated before infection of vero cells; assay type: cell-based, herpes simplex virus
Method: To determine whether PS3 has a virucidal effect, the procedure was as follows.
Vero cells were seeded at a cell density of 3·10^4 cells/well of a microtitre plate in 100 μl of MEM medium containing 8% FCS for 24 hours before the test.
On the day of the test, 50 μl of each of the viral suspensions identified above were treated with 50 μl of PS3 or reference product (acyclovir) having a given concentration for one hour at 37° C.
An amount of 100 μl of the mixture of this viral suspension, to which PS3 or the reference product had been added, was introduced into each well of the microtitre plate. The plate was kept at 4° C. for one hour.
It is to be noted that controls of the growth of the cells and of the viruses were run simultaneously.
The plates containing the infected cells were then placed in an oven at 37° C. for 48 or 72 hours.
The virucidal effect of PS3 was evaluated by measurement of the EC50 values determined in accordance with the method described in Example 3.

[3] = tested on: HSV-1, HSV-1R, HSV-2 and HSV-2R; assay: Action on the viral penetration; assay type: cell-based, herpes simplex virus
Method: To determine whether PS3 has an effect on the viral penetration, the procedure was as follows.
Vero cells were seeded at a cell density of 3.5·10^4 cells/well of a microtitre plate in 100 μl of MEM medium containing 8% FCS.
After 24 hours, the confluent cells were brought into contact with 50 μl of a viral suspension for 1 hour at 4° C.
The cell carpet was then incubated with various concentrations of PS3 (0.125-1,250 μg/ml) or reference product, in this case acyclovir ([…]), at 37° C. in order to facilitate penetration of the viruses.
After incubation times of 15, 30 and 60 minutes, the corresponding cells were washed with 100 μl of PBS and then treated for 1 minute with 0.5 mg/ml of proteinase K (Sigma) in solution in PBS in order to remove all the extracellular viruses which had not been adsorbed.
This treatment was stopped by addition of 1 mM of phenylmethylsulphonyl fluoride (Sigma) in solution in PBS containing 3% FCS.
The cells were then washed with 100 μl of PBS per well and cultured again at 37° C. in 200 μl of MEM medium supplemented with 8% FCS.
Controls of the growth of the cells and of the viruses were run simultaneously. After incubation for 48 hours, the effect of PS3 and of acyclovir on the penetration of the virus was measured using the neutral red method.

[4] = tested on: acyclovir-resistant strain HSV-1R; assay: Anti-herpes activity, viability of infected vero cells (neutral red); assay type: cell-based, herpes simplex virus 1; conditions: for Anti-herpes activity (conclusion in words) / EC50: HSV-1R; for Anti-herpes activity (conclusion in words): 48 and 72 hours; for EC50: MOI 0.01 ID50/cell
Method: (§1) This method is based on the principle that living cells absorb neutral red, which is a vital stain. The optical density of the medium was measured at the maximum absorption wavelength of neutral red, that is to say 540 nm, using a spectrophotometer (SpectraCount™, microplate photometer, Packard). The optical density at 540 nm is proportional to the number of living cells in an infected culture (McLaren et al., Antiviral Research, 1983; 3: 223-234 and Langlois et al., Standardization, 1986, 14: 201-211).
(§2) The effective concentration (EC 50%), that is to say the concentration of the sulphated polysaccharide which enables infection of 50% of the cells of a culture to be inhibited, was measured for each viral strain.
(§3) The determination of the EC50 was carried out in 96-well microtitre plates in accordance with the following protocol. Vero cells are seeded at a cell density of 3.5·10^4 cells/well in 100 μl of MEM medium containing 8% FCS. For each viral suspension defined by its MOI: • the negative control column was filled with 100 μl of MEM medium with 8% FCS, • the virus control column was filled with 50 μl of viral suspension having the required MOI and with 50 μl of MEM medium with 8% FCS, • the PS3 control column was filled with 50 μl of PS3 having the desired concentration range or with 50 μl of acyclovir (Zovirax 0.05-5 μg/ml • finally, all the other columns were filled successively with 50 μl of PS3 having the required concentration range or with 50 μl of acyclovir (Zovirax 0.05-5 μg/ml) and with 50 μl of the viral suspension having the desired MOI.
(§4) The EC50 corresponding to the concentration which enables the cytopathic effect of the virus to be reduced by 50% was calculated in accordance with the following formula: […]
(§5) The anti-herpes activity of PS3 was evaluated and compared on each viral suspension of HSV-1, HSV-1R, HSV-2 and HSV-2R defined by an MOI of 0.01 ID50/cell for a cell concentration of 350,000 cells/ml, after incubation times of 48 and 72 hours.
(§6) This series of experiments was carried out applying the protocol enabling the EC50 to be determined, as described in Example 3.
(§7) The therapeutic indices (TI) of PS3, as well as three other reference products, that is to say acyclovir, dextran sulphate and phycarine, were determined in parallel for each viral strain.
(§8) The therapeutic index (TI) represents the ratio between the maximum non-toxic dose (or a dose inducing a quantified toxicity) and the dose inducing a favourable pharmacological effect.

HSV-1 = assay: as above; assay type: cell-based, herpes simplex virus 1; conditions: for EC50: MOI 0.01 ID50/cell
Method: as §1, §2, §3, §4, §5, §6, §7, §8

thrombin = assay: Specific antithrombin test using chromogenic substrates; assay type: biochemical
Description: The effect in the case of the thrombin time can be considered as being due to an inhibition of thrombin dependent on heparin cofactor II. On the basis of on the one hand the lower specific activity and on the other hand the profile dependent on the concentration and also on the other hand other investigations relating to the action mechanism, it is possible to consider that in the case of the laminarin sulphate PS3, the risk of bleeding is considerably lower than in the case of heparin.

[5] = non-resistant strains HSV-1 and HSV-2
[6] = strains HSV-1, HSV-2, HSV-1R, HSV-2R

Row | Compound | Effect in relation to the moment of addition [1, 5] | Inhibitory effect as a function of the moment of use [1] | Virucidal effect [2, 5] | Effect on penetration [3, 5] | Anti-herpes activity (conclusion in words) [4] | Therapeutic index HSV-1R ([4]; incubation time 48 hours) | Therapeutic index HSV-1R ([4]; incubation time 72 hours) | Therapeutic index HSV-1 (HSV-1; incubation time 48 hours) | Therapeutic index HSV-1 (HSV-1; incubation time 72 hours) | Effect in relation to the moment of addition [1, 6] | Virucidal effect ([2]; strains HSV-1, HSV-2, HSV-1R, HSV-2R, viral suspension treated one hour at 37° C.) | antithrombin activity (thrombin) | Effect on penetration [3, 6] | EC50 ([4]; after 48 hours of treatment) | EC50 ([4]; after 72 hours of treatment) | EC50 (HSV-1; HSV-1, after 48 hours of treatment) | EC50 (HSV-1; HSV-1, after 72 hours of treatment)
1 | Nc1nc2c(ncn2COCCO)c(=O)[nH]1 [Acyclovir, acyclovir, reference compound] | effective up | no effect | no | no | not effective | 0 | 0 | >4,902 | >1,492 | – | – | – | – | – | – | – | –
2 | sulphated laminarin [PS3] | – | particularly effective | – | – | more effective than acyclovir | >1,157 | >530 | >1,761 | >651 | not very effective | no virucidal effect and no | nor an antithrombin activity | no antiviral activity on penetration and no | less than 2 μg/ml | less than 5 μg/ml | less than 2 μg/ml | less than 5 μg/ml
